The values below come from ChEMBL document CHEMBL1134024, “Synthesis and structure-activity studies of side-chain derivatized arylhydantoins for investigation as androgen receptor radioligands” (Bioorg Med Chem Lett, 2001).

Structures are written as SMILES. pKi: −log10 of the molar value.

One assay deals with T1, Androgen receptor (Rattus norvegicus, UniProt P15207).
T1 sequence (P15207 whole entry): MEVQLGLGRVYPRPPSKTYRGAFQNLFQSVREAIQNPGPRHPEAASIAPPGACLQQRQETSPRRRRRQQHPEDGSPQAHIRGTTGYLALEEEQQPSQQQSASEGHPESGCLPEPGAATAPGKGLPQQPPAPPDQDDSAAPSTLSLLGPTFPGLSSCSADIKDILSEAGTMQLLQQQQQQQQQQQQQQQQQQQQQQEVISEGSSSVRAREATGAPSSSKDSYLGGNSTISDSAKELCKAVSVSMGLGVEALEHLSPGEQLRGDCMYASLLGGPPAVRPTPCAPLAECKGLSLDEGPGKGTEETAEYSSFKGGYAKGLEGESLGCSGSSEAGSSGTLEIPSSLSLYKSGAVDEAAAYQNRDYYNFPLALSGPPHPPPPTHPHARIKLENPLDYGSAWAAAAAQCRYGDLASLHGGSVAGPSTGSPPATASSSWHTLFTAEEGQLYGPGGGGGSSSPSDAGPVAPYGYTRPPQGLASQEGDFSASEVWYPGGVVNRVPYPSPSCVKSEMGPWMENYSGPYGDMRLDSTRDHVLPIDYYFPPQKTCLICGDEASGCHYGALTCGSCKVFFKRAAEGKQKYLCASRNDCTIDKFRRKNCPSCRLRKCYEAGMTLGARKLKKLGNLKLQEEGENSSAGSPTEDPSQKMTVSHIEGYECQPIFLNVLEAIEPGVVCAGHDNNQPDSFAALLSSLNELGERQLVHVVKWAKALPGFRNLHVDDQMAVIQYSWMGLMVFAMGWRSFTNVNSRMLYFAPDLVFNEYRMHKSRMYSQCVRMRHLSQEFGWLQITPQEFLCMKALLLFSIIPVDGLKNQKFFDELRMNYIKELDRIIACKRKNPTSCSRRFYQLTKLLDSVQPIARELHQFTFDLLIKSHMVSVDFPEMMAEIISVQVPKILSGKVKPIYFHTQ
The assay is described as follows: Binding affinity against rat prostate cytosolic Androgen receptor using [3H]mibolerone as radioligand.
Details: not given
With `CC1(C)C(=O)N(c2ccc(C#N)c(C(F)(F)F)c2)C(=O)N1Cc1ccc(I)cc1`, the pKi is 6.82.
Consider `CC1(C)C(=O)N(c2ccc(C#N)c(C(F)(F)F)c2)C(=O)N1CCCCO` [RU-58841], for which the pKi is 7.59.
On the same count and under the same terms, in the case of `CC1(C)C(=O)N(c2ccc(C#N)c(C(F)(F)F)c2)C(=O)N1CCCc1ccc(I)cc1` it was 7.19.
In the case of `CC1(C)C(=O)N(c2ccc(C#N)c(C(F)(F)F)c2)C(=O)N1CCc1cccc(I)c1`, the pKi was 6.09.
On the same count and under the same terms, in the case of `CC1(C)C(=O)N(c2ccc(C#N)c(C(F)(F)F)c2)C(=O)N1CCc1ccc(I)cc1` it was 6.38; in that of `CC1(C)C(=O)N(c2ccc(C#N)c(C(F)(F)F)c2)C(=O)N1C/C=C/I`, 7.89; in that of `COCCN1C(=O)N(c2ccc(C#N)c(C(F)(F)F)c2)C(=O)C1(C)C`, 6.92.
Same read-out and setting: in the case of `CC1(C)C(=O)N(c2ccc(C#N)c(C(F)(F)F)c2)C(=O)N1CCCF` it was 6.49.
Still for that read-out and setting: for `CC1(C)C(=O)N(c2ccc(C#N)c(C(F)(F)F)c2)C(=O)N1CCF` the value was 6.85; for `CN1C(=O)N(c2ccc(C#N)c(C(F)(F)F)c2)C(=O)C1(C)C`, 7.43.
Regarding `CC1(C)C(=O)N(c2ccc(C#N)c(C(F)(F)F)c2)C(=O)N1CCCc1cccc(I)c1`, the negative logarithm of the Ki (pKi) was 6.44.
The same measure, in the same setting: in the case of `CC1(C)C(=O)N(c2ccc(C#N)c(C(F)(F)F)c2)C(=O)N1Cc1cccc(I)c1` it was 6.91.

The target of a further assay is T2, Androgen receptor (Rattus norvegicus) (UniProt P15207).
T2 sequence (whole entry): T1 sequence (P15207 whole entry)
The following applies: Prostate gland.
Description: Displacement of [3H]-mibolerone from rat prostate cytosolic Androgen receptor
Consider `CC1(C)C(=O)N(c2ccc(C#N)c(C(F)(F)F)c2)C(=O)N1CCCCO` [RU-58841], for which the Ka worked out at 1.2 nM.
